Data: patent publication US20260306460A1, “COMPOSITION FOR REMOVING AND INHIBITING SENESCENT CELLS, AND USES THEREOF” (LIFECEUTIX CO., LTD., priority 2023, published 2026)
“Also recorded” adds a separate entry of the source.

Assays:
senescent human cells = test: Viability of doxorubicin-induced senescent human cells (CellTiter-Glo), Example 11; format: cell-based; details: excessive concentrations (1 or 20 mM)
Description: Cells in which senescence was induced by treatment with doxorubicin were treated with the test compound at designated concentrations and measured using the CellTiter-Glo Luminescent Cell Viability Assay (Promega).
After 3 days, cell viability was measured using CellTiter-Glo Luminescent Cell Viability Assay (Promega) or light microscopy.

senescent foreskin cells = test: Survival of senescent human cells treated with supernatant (secreted fluid) from death-induced cells, Example 13; format: cell-based; details: for Survival: Table 8, supernatant from dying senescent cells treated at 30, 90 or 270 μM (as Example 11), senescent treated cells
[1] = system: HMGN1 secreted from senescent A549 cells; test: HMGN1 secretion (ELISA) from senescent A549 cancer cells, Example 12; format: cell-based, human; details: senescent untreated = 100%; 30 μM; 90 μM for LX-305, 905, 1302, 1601, 1603, 2003, 2702, 2901, 3106; 270 μM for LX-1103, 2005, 2007;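 further: A549 cells made senescent by doxorubicin exposure, with DMSO-treated cells serving as the non-senescent control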
Description: Cells were treated with doxorubicin or control (DMSO) and cultured.

[2] = system: carbon tetrachloride-induced liver fibrosis mice; test: Carbon tetrachloride-induced liver fibrosis mice, Example 31, Table 57; format: in vivo, mouse; details: CCl4-induced liver fibrosis mice, untreated = 100%
Procedure, shortened: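 Mice with induced hepatic fibrosis received either the test compound or, as controls, an equal volume of vehicle solution alone. Once dosing ended, liver tissue was harvested and total RNA was isolated. cDNA was synthesized from this RNA, and quantitative RT-PCR was run on it to measure hepatic mRNA levels of the fibrosis- and senescence-related genes.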

naturally aged mice = test: Anti-aging evaluation in naturally aged mice, Example 31, Table 55; format: in vivo, mouse; details: for Heart Sur2a mRNA / Joint Col2a1 mRNA / Skin Col1a1 mRNA / Skin SDF1 mRNA: untreated = 1.0; for Muscle Mass: untreated 0.64 g; for Fat Mass: untreated 0.82 g; for Cataract incidence: untreated 83%;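 on all read-outs here: Vehicle-dosed control mice received solution alone at matching volume, values compare test-compound-treated aged mice against that control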
Description: After the end of drug administration, the method described in each example below was performed. […] The mRNA amounts of p16, MMP3, and IL6 after natural aging was induced were calculated as 100% and compared with the mRNA amounts of p16, MMP3, and IL6 after treatment with the test compound. In addition, an open field test for the analysis of aging-related frailty, agtr1a mRNA analysis for kidney damage and disease evaluation, col1a1 and SDF1 mRNA analysis for skin aging evaluation such as wrinkles/loss of elasticity/hyperpigmentation, col2a1 mRNA analysis for evaluating joint aging such as osteoarthritis, sur2a mRNA analysis for evaluating cardiac aging such as decreased cardiac load resistance, ctsk mRNA analysis for evaluating bone diseases due to aging such as osteoporosis, muscle tissue weight for analyzing sarcopenia, fat tissue weight for analyzing lipoatrophy, and cataract incidence analysis were performed in mice. For cataract incidence analysis, the drug was administered twice a week under the conditions specified above, and biweekly examinations were conducted until death.

[3] = system: bleomycin-induced pulmonary fibrosis mice; test: Bleomycin-induced pulmonary fibrosis mice, Example 31, Table 56; format: in vivo, mouse; details: untreated = 100%
Procedure, shortened: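 After treatment with test compound or vehicle alone, lungs of bleomycin-induced pulmonary fibrosis mice were harvested. Total RNA extracted and gene expression quantified by qRT-PCR.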

[4] = system: naturally aged C57BL6J mice; format: in vivo, mouse; details: mouse, in vivo
senescent A549 cells = test: Viability of senescent A549 cells (CellTiter-Glo), Example 18, Table 15; details: Homo sapiens, A549, read-out: Survival (%)
Description: Senescence-induced cancer cells treated with doxorubicin were treated with the test compound at designated concentrations, and cell viability was measured using the CellTiter-Glo Luminescent Cell Viability Assay (Promega).

senescent cells = test: Viability of senescent cells (CellTiter-Glo), Example 17, Table 13; details: Homo sapiens, read-out: Survival (%)
Description: Cells induced to undergo senescence by doxorubicin treatment were treated with test compound at designated concentrations and measured using the CellTiter-Glo Luminescent Cell Viability Assay (Promega).

SMILES: OO [H2O2]
- removal of senescent cells (senescent human cells): hardly removed

SMILES: O=c1c2ccccc2[se]n1CCn1[se]c2ccccc2c1=O [LX-112, 1,2-[bis(1,2-benzisoselenazolone-3 (2H)-ketone)]ethane]
- death of senescent cells by medium supernatant (senescent foreskin cells; supernatants from proliferating and senescent death-induced cells): selectively induced the death of senescent cells; also recorded: same results

SMILES: CCn1c(C#CCNc2ccccc2)cc2cc(CNC)ccc21 [LX-905]
- HMGN1 [1]: 217%
- Liver p16 mRNA [2]: 76 (±6.0) %
- Col1a1 mRNA [2]: 71 (±7.5) %
- Femur Ctsk mRNA (naturally aged mice; untreated = 100%): 62%
- Heart Sur2a mRNA (naturally aged mice): 2.4 fold
- Joint Col2a1 mRNA (naturally aged mice): 2.3 fold
- Kidney Agtr1a mRNA (naturally aged mice; kidney, untreated = 100%): 52%
- Liver IL6 mRNA (naturally aged mice; untreated = 100%): 38%
- Liver MMP3 mRNA (naturally aged mice; untreated = 100%): 76%
- Liver p16 mRNA (naturally aged mice; untreated = 100%): 67%
- Open Field Test Time in Center (naturally aged mice; untreated = 100%): 241%
- Skin Col1a1 mRNA (naturally aged mice): 2.0 Fold
- Skin SDF1 mRNA (naturally aged mice): 1.5 fold
- Muscle Mass (naturally aged mice): 0.69 g
- Fat Mass (naturally aged mice): 1.08 g
- Cataract incidence (naturally aged mice): 65%
- Lung p16 mRNA [3]: 67 (±5.5) %
- Col1a1 mRNA [3]: 59 (±13.3) %
- Survival (senescent foreskin cells): 46.5

SMILES: COc1cc(OC)cc(N(CCNC(C)C)c2ccc3ncc(-c4cnn(C)c4)nc3c2)c1 [LX-1903, Erdafitinib]
- Liver p16 mRNA [2]: 67 (±9.2) %
- Col1a1 mRNA [2]: 62 (±6.9) %
- Femur Ctsk mRNA (naturally aged mice; untreated = 100%): 77%
- Heart Sur2a mRNA (naturally aged mice): 1.4 fold
- Joint Col2a1 mRNA (naturally aged mice): 1.7 fold
- Liver IL6 mRNA (naturally aged mice; untreated = 100%): 58%
- Liver MMP3 mRNA (naturally aged mice; untreated = 100%): 75%
- Liver p16 mRNA (naturally aged mice; untreated = 100%): 69%
- Open Field Test Time in Center (naturally aged mice; untreated = 100%): 161%
- Skin Col1a1 mRNA (naturally aged mice): 1.2 Fold
- Skin SDF1 mRNA (naturally aged mice): 1.4 fold
- Muscle Mass (naturally aged mice): 0.69 g
- Fat Mass (naturally aged mice): 0.97 g
- Cataract incidence (naturally aged mice): 79%
- Lung p16 mRNA [3]: 73 (±6.6) %
- Col1a1 mRNA [3]: 70 (±9.3) %
- Survival (senescent foreskin cells): 62.8

SMILES: COC(=O)[C@]12CCC(C)(C)C[C@H]1[C@H]1C(=O)C=C3[C@@]4(C)C=C(C#N)C(=O)[C@@H](C)[C@@H]4CC[C@@]3(C)[C@]1(C)CC2 [LX-2316]
- wound/damage healing improvement [4]: damage treatment and recovery

SMILES: C[C@@H]1C(=O)C(C#N)=C[C@]2(C)C3=CC(=O)[C@@H]4[C@@H]5CC(C)(C)CC[C@]5(CO)CC[C@@]4(C)[C@]3(C)CC[C@@H]12 [LX-2317]
- wound/damage healing improvement [4]: damage treatment and recovery

SMILES: CC1(C)CC[C@]2(CO)CC[C@]3(C)[C@H](C(=O)C=C4[C@@]5(C)[C@H]6O[C@@]6(C#N)C(=O)C(C)(C)[C@@H]5CC[C@]43C)[C@@H]2C1 [LX-2318]
- wound/damage healing improvement [4]: damage treatment and recovery

SMILES: C[C@@H]1C(=O)[C@]2(C#N)O[C@@H]2[C@]2(C)C3=CC(=O)[C@@H]4[C@@H]5CC(C)(C)CC[C@]5(NC(=O)C(C)(F)F)CC[C@@]4(C)[C@]3(C)CC[C@@H]12 [LX-2319]
- wound/damage healing improvement [4]: damage treatment and recovery

SMILES: Cc1noc([C@]23CCC(C)(C)C[C@H]2[C@H]2C(=O)C=C4[C@@]5(C)C=C(C#N)C(=O)C(C)(C)[C@@H]5CC[C@@]4(C)[C@]2(C)CC3)n1 [LX-2401]
- wound/damage healing improvement [4]: damage treatment and recovery

SMILES: CCNC(=O)CC[C@]12CCC(C)(C)C[C@H]1[C@H]1C(=O)C=C3[C@@]4(C)C=C(C#N)C(=O)C(C)(C)[C@@H]4CC[C@@]3(C)[C@]1(C)CC2 [LX-2402]
- wound/damage healing improvement [4]: damage treatment and recovery

SMILES: CNC(=O)CC[C@]12CCC(C)(C)C[C@H]1[C@H]1C(=O)C=C3[C@@]4(C)C=C(C#N)C(=O)C(C)(C)[C@@H]4CC[C@@]3(C)[C@]1(C)CC2 [LX-2403]
- wound/damage healing improvement [4]: damage treatment and recovery

SMILES: CC1(C)CC[C@]2(CO)CC[C@@]3(C)[C@]4(C)CC[C@H]5C(C)(C)C(=O)C(C#N)=C[C@]5(C)C4=CC(=O)[C@]3(O)C2C1 (stereo partly shown) [LX-2405]
- wound/damage healing improvement [4]: damage treatment and recovery

SMILES: CC1(C)CC[C@]2(C(N)=O)CC[C@@]3(C)[C@]4(C)CC[C@H]5C(C)(C)C(=O)C(C#N)=C[C@]5(C)C4=CC(=O)[C@]3(O)[C@@H]2C1 [LX-2406]
- wound/damage healing improvement [4]: damage treatment and recovery

SMILES: C[C@@H]1C(=O)C(C#N)=C[C@]2(c3ccccc3)c3c(c(-c4cccnc4)nn3C)CC[C@@H]12 [LX-2407, (5aS,6S,9aR)-1,6-dimethyl-7-oxo-9a-phenyl-3-(pyridin-3-yl)-4,5,5a,6,7,9a-hexahydro-1H-benzo[g]indazole-8-carbonitrile]
- wound/damage healing improvement [4]: damage treatment and recovery

SMILES: C[C@@H]1C(=O)C(C#N)=C[C@]2(c3ccccc3)c3c(c(-c4cncnc4)nn3C)CC[C@@H]12 [LX-2408]
- wound/damage healing improvement [4]: damage treatment and recovery

SMILES: C[C@@H]1C(=O)C(C#N)=C[C@]2(C)c3nc(CCO)n(-c4ccccc4)c3CC[C@@H]12 [LX-2409]
- wound/damage healing improvement [4]: damage treatment and recovery

SMILES: CC(O)[C@]1(C)C(=O)C(C#N)=C[C@]2(C)C3=CC(=O)[C@]45OC(=O)[C@@]6(CCC(C)(C)C[C@H]64)CC[C@@]5(C)[C@]3(C)CC[C@@H]12 (stereo partly shown) [LX-2501]
- wound/damage healing improvement [4]: damage treatment and recovery

SMILES: CCC[C@H]1C(=O)C(C#N)=C[C@@]2(C)c3nc(-c4cccc5ccccc45)nc(-c4ccccc4F)c3CC[C@H]12 [LX-2502]
- wound/damage healing improvement [4]: damage treatment and recovery

SMILES: CCC[C@H]1C(=O)C(C#N)=C[C@@]2(C)c3nc(-c4cccc5ncccc45)nc(-c4ccccc4F)c3CC[C@H]12 [LX-2503]
- wound/damage healing improvement [4]: damage treatment and recovery

SMILES: C[C@H]1C(=O)C(C#N)=C[C@@]2(C)c3c(c(-c4ccccc4)nn3-c3ccc(-c4cccc(CO)c4)cc3)CC[C@H]12 [LX-2505]
- wound/damage healing improvement [4]: damage treatment and recovery

SMILES: Cc1cc(-c2ccc(-n3nc(-c4ccccc4F)c4c3[C@]3(C)C=C(C#N)C(=O)[C@H](C)[C@H]3CC4)cc2)cnn1 [LX-2506]
- wound/damage healing improvement [4]: damage treatment and recovery

SMILES: C[C@@H]1C(=O)C(C#N)=C[C@]2(C)C3=CC(=O)[C@@H]4[C@@H]5CC(C)(C)CC[C@]5(c5nnc(CF)o5)CC[C@@]4(C)[C@]3(C)CC[C@@H]12 [LX-2507]
- wound/damage healing improvement [4]: damage treatment and recovery

SMILES: CC1(C)CC[C@]2(c3nc(CO)no3)CC[C@]3(C)[C@H](C(=O)C=C4[C@@]5(C)C=C(C#N)C(=O)C(C)(C)[C@@H]5CC[C@]43C)[C@@H]2C1 [LX-2508]
- wound/damage healing improvement [4]: damage treatment and recovery

SMILES: C=CC(=O)NC[C@]12CCC(C)(C)C[C@H]1[C@H]1C(=O)C=C3[C@@]4(C)C=C(C#N)C(=O)C(C)(C)[C@@H]4CC[C@@]3(C)[C@]1(C)CC2 [LX-2509]
- wound/damage healing improvement [4]: damage treatment and recovery

SMILES: CCC(=O)NC[C@]12CCC(C)(C)C[C@H]1[C@H]1C(=O)C=C3[C@@]4(C)C=C(C#N)C(=O)C(C)(C)[C@@H]4CC[C@@]3(C)[C@]1(C)CC2 [LX-2510]
- wound/damage healing improvement [4]: damage treatment and recovery

SMILES: C[C@@H]1[C@H]2[C@H]3C(=O)C=C4[C@@]5(C)C=C(C#N)C(=O)C(C)(C)[C@@H]5CC[C@@]4(C)[C@]3(C)CC[C@@]2(c2nc(CCO)no2)CC[C@H]1C [LX-2511]
- wound/damage healing improvement [4]: damage treatment and recovery

SMILES: C[C@@H]1[C@H]2[C@H]3C(=O)C=C4[C@@]5(C)C=C(C#N)C(=O)C(C)(C)[C@@H]5CC[C@@]4(C)[C@]3(C)CC[C@@]2(CO)CC[C@H]1C [LX-2512]
- wound/damage healing improvement [4]: damage treatment and recovery

SMILES: COC(=O)[C@@]1(C)CC[C@]2(C)CC[C@]3(C)[C@H](C(=O)C=C4[C@@]5(C)C=C(C#N)C(=O)C(C)(C)C5CC[C@]43C)[C@@H]2C1 (stereo partly shown) [LX-2513, Soloxolone methyl]
- wound/damage healing improvement [4]: damage treatment and recovery

SMILES: CC1(C)C(=O)C(C#N)=C[C@]2(C)C3=CC(=O)[C@@H]4[C@@H]5C[C@@](C)(C(=O)NCCc6c[nH]c7ccccc67)CC[C@]5(C)CC[C@@]4(C)[C@]3(C)CCC12 (stereo partly shown) [LX-2517, Soloxolone tryptamide]
- wound/damage healing improvement [4]: damage treatment and recovery

SMILES: C=C(C)[C@@H]1CC[C@]2(C)CC[C@]3(C)[C@H](CC[C@@H]4[C@@]5(C)CC[C@H](O)C(C)(C)[C@@H]5CC[C@]43C)[C@@H]12 [LX-5433, Lupeol]
- viability at 1.1 µM (senescent A549 cells): 97.8%
- viability at 10 µM (senescent A549 cells): 76.5%
- viability at 30 µM (senescent A549 cells): 64.7%
- viability at 90 µM (senescent A549 cells): 19.3%
- viability at 1.1 µM (senescent cells): 108%
- viability at 10 µM (senescent cells): 71.1%
- viability at 30 µM (senescent cells): 51.8%
- viability at 90 µM (senescent cells): 2.4%
- wound/damage healing improvement [4]: damage treatment and recovery

SMILES: CC(=O)N[C@@H](CS)C(=O)O [NAC, N-acetyl cysteine]
- removal of senescent cells (senescent human cells): hardly removed
